Assay results reported in the Kinase Knowledgebase extract (Sharma et al. 2016).
Values after ≈ are worked out from the molar mass of the structure shown.

target: EGFR (UniProt P00533)
Sequence (P00533 whole entry, looked up): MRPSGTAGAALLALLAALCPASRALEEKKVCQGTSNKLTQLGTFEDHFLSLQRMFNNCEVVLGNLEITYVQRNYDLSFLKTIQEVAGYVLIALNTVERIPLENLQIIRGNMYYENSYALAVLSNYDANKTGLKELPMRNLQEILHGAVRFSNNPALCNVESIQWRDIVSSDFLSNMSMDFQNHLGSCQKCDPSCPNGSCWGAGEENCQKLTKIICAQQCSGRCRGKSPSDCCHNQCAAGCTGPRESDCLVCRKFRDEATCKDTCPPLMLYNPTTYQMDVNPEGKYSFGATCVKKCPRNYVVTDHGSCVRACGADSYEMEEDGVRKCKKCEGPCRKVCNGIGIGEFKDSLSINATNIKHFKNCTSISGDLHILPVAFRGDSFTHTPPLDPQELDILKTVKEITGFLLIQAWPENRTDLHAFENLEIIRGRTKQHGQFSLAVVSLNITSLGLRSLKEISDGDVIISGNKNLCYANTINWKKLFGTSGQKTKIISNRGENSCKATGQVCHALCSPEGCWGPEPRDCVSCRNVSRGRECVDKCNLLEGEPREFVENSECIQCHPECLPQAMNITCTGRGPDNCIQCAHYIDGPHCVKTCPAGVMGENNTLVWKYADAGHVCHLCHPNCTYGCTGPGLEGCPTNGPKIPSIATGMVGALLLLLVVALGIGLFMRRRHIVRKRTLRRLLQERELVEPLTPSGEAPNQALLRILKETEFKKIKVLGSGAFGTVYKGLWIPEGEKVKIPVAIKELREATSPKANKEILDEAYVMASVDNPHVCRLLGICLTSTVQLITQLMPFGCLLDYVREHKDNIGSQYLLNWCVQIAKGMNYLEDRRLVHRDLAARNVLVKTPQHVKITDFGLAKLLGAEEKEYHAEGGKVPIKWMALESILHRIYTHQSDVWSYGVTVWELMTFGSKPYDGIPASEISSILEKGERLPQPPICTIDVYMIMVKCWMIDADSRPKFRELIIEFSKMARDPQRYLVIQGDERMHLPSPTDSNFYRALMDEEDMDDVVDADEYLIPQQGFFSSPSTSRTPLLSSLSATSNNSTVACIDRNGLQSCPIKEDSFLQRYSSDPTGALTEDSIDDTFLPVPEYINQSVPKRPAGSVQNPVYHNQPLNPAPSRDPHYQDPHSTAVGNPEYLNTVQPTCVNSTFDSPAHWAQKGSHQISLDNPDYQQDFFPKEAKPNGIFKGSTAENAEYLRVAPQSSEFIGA

| SMILES | IC50 [µg/mL] |
| --- | --- |
| CC(C)(C)c1cc(Nc2ncnc(Nc3ccc(CC(=O)O)cc3)n2)[nH]n1 | 0.4 to 2.4 (≈ 1.09 to 6.53 µM) |
| COc1cc(Nc2ncnc(N(C)c3cccc(Cl)c3)n2)cc2ccccc12 | < 0.4 |
| COc1ccc(Nc2ncnc(-c3cccs3)n2)cc1OC | > 4.5 |
| COc1cc(Nc2ncnc(-c3cccnc3NCc3ccccc3)n2)cc(OC)c1OC | > 4.5 |
| COc1cc(Nc2ncnc(-c3ccccc3)n2)cc(OC)c1OC | > 4.5 |
| COC(=O)Cc1cccc(Nc2ncnc(-n3c(NCc4ccc(OC)cc4)nc4ccccc43)n2)c1 | > 4.5 |
| COc1cc(Nc2ncnc(-n3c(N)nc4ccccc43)n2)ccc1OCCn1ccnn1 | > 4.5 |
| Fc1ccc(Nc2ncnc(Nc3ccc4cn[nH]c4c3)n2)cc1Cl | < 0.4 |
| COc1cc(Nc2ncnc(Nc3cccc(Br)c3)n2)cc(OC)c1OC | < 0.4 |
| COc1cc(Nc2ncnc(-n3c(N[C@@H](C)c4ccccc4)nc4ccccc43)n2)cc(OC)c1OC | 2.4 to 3.5 (≈ 4.82 to 7.03 µM) |
| CC(C)(C)OC(=O)Nc1ccc(Nc2ncnc(-c3ccccc3)n2)cc1 | > 4.5 |
| CN(c1ccc2c(cnn2Cc2ccccc2)c1)c1ncnc(Nc2cccc(Br)c2)n1 | < 0.4 |
| COCCOc1ccc(Nc2ncnc(Nc3ccc(C)c(O)c3)n2)cc1OC | < 0.4 |
| COc1ccc(-c2cn[nH]c2Nc2ncnc(Nc3cc(OC)c(OC)c(OC)c3)n2)cc1OC | 3.5 to 4.5 (≈ 7.3 to 9.38 µM) |
| O=c1[nH]c2ccccc2n1-c1ncnc(Nc2ccc3ccccc3c2)n1 | > 4.5 |
| COc1cc(Nc2ncnc(-n3c(N[C@H](C)c4ccccc4)nc4ccccc43)n2)cc(OC)c1OC | > 4.5 |
| Nc1nc2ccccc2n1-c1ncnc(Cl)n1 | > 4.5 |
| COc1cc(Nc2ncnc(-c3cccnc3NCCN3CCCCC3)n2)cc(OC)c1OC | > 4.5 |
| COc1cc(Nc2ncnc(-n3c(NC(C)c4ccc(F)cc4)nc4ccccc43)n2)cc(OC)c1OC (centres undefined) | > 4.5 |
| COc1cc(Nc2ncnc(NC3CCc4ccccc43)n2)cc(OC)c1OC (centres undefined) | 0.4 to 2.4 (≈ 1.02 to 6.1 µM) |
| COc1cc(Nc2ncnc(-c3cccnc3Cl)n2)cc(OC)c1OC | > 4.5 |

| SMILES | IC50 [µg/mL] |
| --- | --- |
| COc1cc(Nc2ncnc(Nc3nc4ccccc4n3C)n2)cc(OC)c1OC | > 4.5 |
| Clc1cccc(Nc2ncnc(Nc3ccc4[nH]ncc4c3)n2)c1 | < 0.4 |
| COc1ccc(Nc2ncnc(Nc3cc(OC)c(OC)c(OC)c3)n2)cc1OCCN1CCOCC1 | 3.5 to 4.5 (≈ 6.83 to 8.78 µM) |
| COc1cc(Nc2ncnc(-c3ccnc(NCCCN)c3)n2)cc(OC)c1OC | > 4.5 |
| NC(=O)c1cccc(Nc2ncnc(-n3c(N)nc4ccccc43)n2)c1 | > 4.5 |
| COc1cccc(-c2ncnc(Nc3cc(OC)c(OC)c(OC)c3)n2)c1 | 2.4 to 3.5 (≈ 6.51 to 9.5 µM) |
| COc1cc(Nc2ncnc(-n3c(N(C)C)nc4ccccc43)n2)cc(OC)c1OC | > 4.5 |
| Clc1cccc(Nc2ncnc(Nc3cc(-c4ccccc4)n[nH]3)n2)c1 | < 0.4 |
| COc1ccc(Nc2ncnc(N(C)[C@H](C)c3ccccc3)n2)cc1OC | 0.4 to 2.4 (≈ 1.09 to 6.57 µM) |
| COc1cc(Nc2ncnc(-c3c(O)[nH]c4ccccc34)n2)cc(OC)c1OC | > 4.5 |
| COc1cc(Nc2ncnc(-n3c(NCCO)nc4ccccc43)n2)cc(OC)c1OC | > 4.5 |
| CN(c1cccc(Cl)c1)c1ncnc(Nc2cccc(CC(=O)O)c2)n1 | < 0.4 |
| COc1ccc(CCNc2ncnc(Nc3cc(-c4ccco4)[nH]n3)n2)cc1OC | > 4.5 |
| COc1ccc(Nc2ncnc(Nc3cc(Cl)cc(Cl)c3)n2)cc1OC | 2.4 to 3.5 (≈ 6.12 to 8.92 µM) |
| COC(=O)c1ccc(-c2cc(Nc3ncnc(NCc4cccnc4)n3)[nH]n2)cc1 | > 4.5 |
| COc1cccc(Nc2ncnc(-c3ccccc3)n2)c1 | > 4.5 |
| COc1cc(Nc2ncnc(-n3ccnc3NCc3ccccc3)n2)cc(OC)c1OC | > 4.5 |
| COc1cc(Nc2ncnc(-n3c(NCc4ccccc4)nc4ccccc43)n2)cc(OC)c1OC | 2.4 to 3.5 (≈ 4.96 to 7.24 µM) |
| CC(C)Nc1ncccc1-c1ncnc(Nc2ccc(C(N)=O)cc2)n1 | > 4.5 |
| COc1cc(Nc2ncnc(-n3c(NCc4ccc(O)cc4)nc4ccccc43)n2)cc(OC)c1OC | > 4.5 |
| COc1cc(Nc2ncnc(N3CCCCC3)n2)cc(OC)c1OC | > 4.5 |

| SMILES | IC50 [µg/mL] |
| --- | --- |
| COc1cc(Nc2ncnc(N3CCN(C(=O)OC(C)(C)C)CC3)n2)cc(OC)c1OC | > 4.5 |
| COCCOc1ccc(Nc2ncnc(Nc3ccc4[nH]ccc4c3)n2)cc1OCCOC | < 0.4 |
| COc1ccc(Nc2ncnc(N(C)c3ccc(F)cc3F)n2)cc1OC | < 0.4 |
| O=c1[nH]c2ccccc2n1-c1ncnc(Nc2ccc(Cl)cc2Cl)n1 | > 4.5 |
| COc1cc(C)c(Nc2ncnc(-c3cccs3)n2)cc1OC | > 4.5 |
| COc1cc(Nc2ncnc(N(CCC(C)C)c3ccc(Cl)cc3)n2)cc(OC)c1OC | < 0.4 |
| COc1cc(Nc2ncnc(-n3c(NC(=O)c4ccccc4)nc4ccccc43)n2)cc(OC)c1OC | > 4.5 |
| COc1cc(Nc2ncnc(N3CCc4ccc([N+](=O)[O-])cc43)n2)cc(OC)c1OC | > 4.5 |
| Nc1ncnc(Nc2nc(-c3ccc(Cl)cc3)cs2)n1 | > 4.5 |
| COc1cc(Nc2ncnc(N(C/C=C/c3ccccc3)c3ccc(Cl)cc3)n2)cc(OC)c1OC | < 0.4 |
| COc1cc(Nc2ncnc(-n3c(Cl)nc4ccccc43)n2)cc(OC)c1OC | > 4.5 |
| CCN(CC)CCOc1cc(Nc2ncnc(-n3c(N)nc4ccccc43)n2)ccc1OC | > 4.5 |
| COc1ccc(Nc2ncnc(-n3c(=O)[nH]c4ccccc43)n2)cc1OC | 2.4 to 3.5 (≈ 6.59 to 9.61 µM) |
| CC(C)(C)OC(=O)NCc1ccc(Nc2ncnc(Nc3cc(-c4ccco4)n[nH]3)n2)cc1 | 0.4 to 2.4 (≈ 0.892 to 5.35 µM) |
| Cc1ccc2c(c1)CCCN2c1ncnc(NCc2cccnc2)n1 | > 4.5 |
| NC(=O)c1ccccc1Nc1ncnc(-n2c(N)nc3ccccc32)n1 | > 4.5 |
| COc1cc(Br)ccc1Nc1nc2ccccc2n1-c1ncnc(Nc2cc(OC)c(OC)c(OC)c2)n1 | > 4.5 |
| COc1cc(Nc2ncnc(Nc3ccc4[nH]ncc4c3)n2)cc(OC)c1OC | < 0.4 |
| N#Cc1ccc(Nc2ncnc(-n3c(=O)[nH]c4ccccc43)n2)cc1 | > 4.5 |
| COc1cc(Nc2ncnc(-c3ccsc3)n2)cc(OC)c1OC | > 4.5 |
| CN(c1cccc(Cl)c1)c1ncnc(NC2CCN(Cc3ccccc3)CC2)n1 | 0.4 to 2.4 (≈ 0.978 to 5.87 µM) |

Further lines, results first:

| IC50 [µg/mL] | SMILES |
| --- | --- |
| > 4.5 | COc1cc(Nc2ncnc(-n3c(NC(C)(C)c4ccccc4)nc4ccccc43)n2)cc(OC)c1OC |
| > 4.5 | Clc1cc(Cl)cc(Nc2ncnc(-n3cccc3)n2)c1 |
| 0.4 to 2.4 (≈ 1.07 to 6.42 µM) | O=C(O)Cc1cccc(Nc2ncnc(Nc3ccc(Cl)cc3F)n2)c1 |
| 0.4 to 2.4 (≈ 1.09 to 6.57 µM) | COC(=O)Cc1cccc(Nc2ncnc(Nc3ccc(C)c(O)c3)n2)c1 |
| < 0.4 | COc1ccc(Nc2ncnc(Nc3ccc(C)c(O)c3)n2)cc1OC |
| > 4.5 | O=c1[nH]c2ccccc2n1-c1ncnc(Nc2cc(Cl)cc(Cl)c2)n1 |
| < 0.4 | Cc1cccc(Nc2ncnc(Nc3ccc4c(cnn4Cc4ccccc4)c3)n2)c1 |
| > 4.5 | CCOc1cccc(Nc2ncnc(Nc3cc(-c4ccc(C(=O)OC)cc4)n[nH]3)n2)c1 |
| 3.5 to 4.5 (≈ 8.07 to 10.4 µM) | COc1cc(Nc2ncnc(Nc3cc(-c4ccccc4)nn3C)n2)cc(OC)c1OC |
| > 4.5 | COc1cccc(Nc2nc3ccccc3n2-c2ncnc(Nc3cc(OC)c(OC)c(OC)c3)n2)c1 |
| > 4.5 | CCN1CCCC1CNc1ncnc(Nc2ccc(OC)c(OC)c2)n1 (centres undefined) |
| > 4.5 | COc1cc(Nc2ncnc(-c3ccc(N4CCOCC4)nc3)n2)cc(OC)c1OC |
| > 4.5 | COc1ccc([C@H](C)Nc2nc3ccccc3n2-c2ncnc(Nc3cc(OC)c(OC)c(OC)c3)n2)cc1 |
| < 0.4 | COc1cc(Nc2ncnc(Nc3ccc(Cl)cc3F)n2)cc(OC)c1OC |
| 0.4 to 2.4 (≈ 0.991 to 5.95 µM) | c1coc(-c2cc(Nc3ncnc(Nc4ccc(-c5csnn5)cc4)n3)n[nH]2)c1 |
| > 4.5 | Clc1ccc(-c2csc(Nc3ncnc(-n4cccc4)n3)n2)cc1 |
| 2.4 to 3.5 (≈ 5.93 to 8.65 µM) | COc1cc(Nc2ncnc(Nc3cccc4ncccc34)n2)cc(OC)c1OC |
| > 4.5 | COc1cc(Nc2ncnc(-c3cccc4ccccc34)n2)cc(OC)c1OC |
| 0.4 to 2.4 (≈ 0.802 to 4.81 µM) | CCN(CC)CCOc1ccc(Nc2ncnc(Nc3cc(OC)c(OC)c(OC)c3)n2)cc1OC |
| > 4.5 | COC(=O)c1ccc(-c2cc(Nc3ncnc(NCc4ccco4)n3)[nH]n2)cc1 |
| 0.4 to 2.4 (≈ 1.08 to 6.46 µM) | COc1cc(Nc2ncnc(Nc3ccc(F)cc3)n2)cc(OC)c1OC |
| 3.5 to 4.5 (≈ 7.6 to 9.77 µM) | COc1cccc(Nc2ncccc2-c2ncnc(Nc3cc(OC)c(OC)c(OC)c3)n2)c1 |
| < 0.4 | COc1cc(Nc2ncnc(Nc3ccc(Cl)c4ccccc34)n2)cc(OC)c1OC |

| IC50 [µg/mL] | SMILES |
| --- | --- |
| > 4.5 | O=c1[nH]c2ccccc2n1-c1ncnc(Nc2cc(C(F)(F)F)cc(C(F)(F)F)c2)n1 |
| > 4.5 | C=CCNc1ncccc1-c1ncnc(Nc2cc(OC)c(OC)c(OC)c2)n1 |
| > 4.5 | CCc1ccccc1Nc1ncnc(-n2cccc2)n1 |
| 0.4 to 2.4 (≈ 1.01 to 6.05 µM) | c1ccc(-c2cc(Nc3ncnc(Nc4cccc(-c5cnco5)c4)n3)[nH]n2)cc1 |
| 2.4 to 3.5 (≈ 6.46 to 9.42 µM) | CC1CCc2ccccc2N1c1ncnc(N2c3ccccc3CCC2C)n1 (centres undefined) |
| > 4.5 | c1csc(-c2ncnc(Nc3ccc4c(c3)OCO4)n2)c1 |
| > 4.5 | c1ccc(Cn2ncc3cc(Nc4ncnc(NCC5CCCCC5)n4)ccc32)cc1 |
| 0.4 to 2.4 (≈ 1.08 to 6.48 µM) | Nc1nc2ccccc2n1-c1ncnc(Nc2cccc(-c3cnco3)c2)n1 |
| < 0.4 | Cc1ccc(Cl)cc1Nc1ncnc(Nc2cc(Cl)ccc2C)n1 |
| > 4.5 | COc1ccc(CNc2nc3ccccc3n2-c2ncnc(Nc3cccc(CC(=O)O)c3)n2)cc1 |
| < 0.4 | CN(c1cccc(Cl)c1)c1ncnc(Nc2ccc(S(C)(=O)=O)cc2)n1 |
| 0.4 to 2.4 (≈ 1.2 to 7.18 µM) | c1ccc(CNc2ncnc(Nc3cc(-c4ccco4)n[nH]3)n2)nc1 |
| < 0.4 | CN(c1ccc2c(cnn2Cc2ccccc2)c1)c1ncnc(Nc2cccc(Cn3ccnn3)c2)n1 |
| < 0.4 | CCOc1cccc(Nc2ncnc(N3CCCc4cc(C)ccc43)n2)c1 |
| > 4.5 | COc1ccc(Nc2ncnc(N(C)C3CCN(Cc4ccccc4)C3)n2)cc1OC (centres undefined) |
| < 0.4 | COc1cc(Nc2ncnc(NC3CC3c3ccccc3)n2)cc(OC)c1OCCN1CCOCC1 (centres undefined) |
| 3.5 to 4.5 (≈ 10.4 to 13.4 µM) | CC(C)Nc1ncccc1-c1ncnc(Nc2cccc(CO)c2)n1 |
| > 4.5 | COc1cc(Nc2ncnc(-c3cccnc3Nc3cccc(C(N)=O)c3)n2)cc(OC)c1OC |
| > 4.5 | O=c1[nH]c2ccccc2n1-c1ncnc(Nc2cccc3cccnc23)n1 |
| 2.4 to 3.5 (≈ 6.3 to 9.19 µM) | COC(=O)c1cccc(Nc2ncnc(-n3c(Cl)nc4ccccc43)n2)c1 |
| < 0.4 | Cc1cccc(Nc2ncnc(Nc3ccc(O)cc3)n2)c1 |
| < 0.4 | CN(c1cccc(Cl)c1)c1ncnc(Nc2cccc(Cn3ccnn3)c2)n1 |
| > 4.5 | Nc1ncnc(Nc2cccc(Nc3ncnc(N)n3)c2)n1 |
